# In patent US4680284A, “Modified phenylalanine peptidylaminodiols” (Abbott Laboratories, priority 1986, dated 1987):
# pIC50: −log10 of the molar value.
# Molecular target: T1, human renal renin (Homo sapiens, UniProt P00797)
# T1 construct: human renal renin, free from acid proteolytic activity; from tissue
# T1 sequence (P00797 67-406): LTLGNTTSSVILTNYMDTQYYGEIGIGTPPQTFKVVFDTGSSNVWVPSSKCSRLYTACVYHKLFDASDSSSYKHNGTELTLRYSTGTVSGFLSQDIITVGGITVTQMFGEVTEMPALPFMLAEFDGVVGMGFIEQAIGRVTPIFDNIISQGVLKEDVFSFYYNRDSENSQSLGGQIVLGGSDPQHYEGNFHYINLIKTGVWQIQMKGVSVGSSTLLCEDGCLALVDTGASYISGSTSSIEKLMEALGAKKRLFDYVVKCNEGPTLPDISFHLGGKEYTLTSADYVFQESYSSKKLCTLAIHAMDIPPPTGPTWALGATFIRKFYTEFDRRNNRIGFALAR
# Assay: In vitro inhibition of human renal renin (angiotensin I formation measured by radioimmunoassay)
# Type: biochemical
# Conditions: human renal renin with human renin substrate (angiotensinogen), 37° C., pH 6.0
row,pIC50,Compound
1,8.30,"CCOC(=O)NC1(C(=O)N[C@@H](Cc2c[nH]cn2)C(=O)N[C@@H](CC2CCCCC2)[C@@H](O)[C@@H](O)CC(C)C)CCc2ccccc2C1 (stereo partly drawn) [Example 10, EtOC-(R,S)-ATCA-His Amide of 2(S)-Amino-1-cyclohexyl-3(R),4(S)-dihydroxy-6-methylheptane]"
2,8.05,"CC(=O)N[C@@](C)(Cc1ccccc1)C(=O)N[C@@H](Cc1c[nH]cn1)C(=O)N[C@@H](CC1CCCCC1)[C@@H](O)[C@@H](O)CC(C)C [Example 19, Acetyl-AMPA-His Amide of 2(S)-Amino-1-cyclohexyl-3(R),4(S)-dihydroxy-6-methylheptane]"
3,8.00,"CCOC(=O)N1Cc2ccccc2CC1C(=O)N[C@@H](Cc1c[nH]cn1)C(=O)N[C@@H](CC1CCCCC1)[C@@H](O)[C@@H](O)CC(C)C (stereo partly drawn) [Example 13, EtOC-TIC-His Amide of 2(S)-Amino-1-cyclohexyl-3(R),4(S)-dihydroxy-6-methylheptane]"
4,7.82,"CCOC(=O)NC1(C(=O)N[C@@H](Cc2c[nH]cn2)C(=O)N[C@@H](CC2CCCCC2)[C@@H](O)[C@@H](O)CC(C)C)Cc2ccccc2C1 [Example 5, EtOC-AICA-His Amide of 2(S)-Amino-1-cyclohexyl-3(R),4(S)-dihydroxy-6-methylheptane]"
5,6.52,"CC(C)C[C@H](O)[C@H](O)[C@H](CC1CCCCC1)NC(=O)[C@H](Cc1c[nH]cn1)NC(=O)C1(N)Cc2ccccc2C1 [Example 7, AICA-His Amide of 2(S)-Amino-1-cyclohexyl-3(R),4(S)-dihydroxy-6-methylheptane]"
6,7.60,"CC(C)C[C@H](O)[C@H](O)[C@H](CC1CCCCC1)NC(=O)[C@H](Cc1c[nH]cn1)NC(=O)C(N)(Cc1ccccc1)Cc1ccccc1 [Example 21, ADBA-His Amide of 2(S)-Amino-1-cyclohexyl-3(R),4(S)-dihydroxy-6-methylheptane]"
7,7.00,"CC(C)C[C@H](O)[C@H](O)[C@H](CC1CCCCC1)NC(=O)[C@H](Cc1c[nH]cn1)NC(=O)C1Cc2ccccc2C(=O)N1 (stereo partly drawn) [Example 15, OTIC-His Amide of 2(S)-Amino-1-cyclohexyl-3(R),4(S)-dihydroxy-6-methylheptane]"
8,8.00,"CC(C)C[C@H](O)[C@H](O)[C@H](CC1CCCCC1)NC(=O)[C@H](Cc1c[nH]cn1)NC(=O)[C@@](C)(N)Cc1ccccc1 [Example 17, AMPA-His Amide of 2(S)-Amino-1-cyclohexyl-3(R),4(S)-dihydroxy-6-methylheptane]"
